Data reported in patent US6498163B1, “Pyrido[2,3-D]pyrimidines and 4-aminopyrimidines as inhibitors of cellular proliferation” (Warner-Lambert Company, priority 1997, dated 2002).

Target: c-Src (Homo sapiens, UniProt P12931)
Assay: c-Src protein kinase assay
Assay type: biochemical
Details: Table 5
Description: Several of the invention compounds have been evaluated in a standard assay to measure their ability to inhibit cellular Src protein kinase (c-Src). […] The assay was carried out as follows:
C-Src kinase was purified from baculovirus infected insect cell lysates using an antipeptide monoclonal antibody directed against the N-terminal amino acids (amino acids 2-17) of c-Src. The antibody, covalently linked to 0.65 μm latex beads, was added to a suspension of insect cell lysis buffer comprised of 150 mM NaCl, 50 mM Tris pH 7.5, 1 mM DTT, 1% NP-40, 2 mM EGTA, 1 mM sodium vanadate, 1 mM PMSF, 1 μg/mL each of leupeptin, pepstatin, and aprotinin. Insect cell lysate containing c-Src protein was incubated with these beads for 3 to 4 hours at 4° C. with rotation. At the end of the lysate incubation, the beads were rinsed three times in lysis buffer, resuspended in lysis buffer containing 10% glycerol, and frozen. These latex beads were thawed, rinsed three times in assay buffer (40 mM Tris, pH 7.5, 5 mM […]) and suspended in the same buffer. […] The filters were then punched, counted in a liquid scintillation counter, and the data examined for inhibitory activity in comparison to a known inhibitor such as erbstatin. […]

Sequence of c-Src (P12931 whole entry, species assumed): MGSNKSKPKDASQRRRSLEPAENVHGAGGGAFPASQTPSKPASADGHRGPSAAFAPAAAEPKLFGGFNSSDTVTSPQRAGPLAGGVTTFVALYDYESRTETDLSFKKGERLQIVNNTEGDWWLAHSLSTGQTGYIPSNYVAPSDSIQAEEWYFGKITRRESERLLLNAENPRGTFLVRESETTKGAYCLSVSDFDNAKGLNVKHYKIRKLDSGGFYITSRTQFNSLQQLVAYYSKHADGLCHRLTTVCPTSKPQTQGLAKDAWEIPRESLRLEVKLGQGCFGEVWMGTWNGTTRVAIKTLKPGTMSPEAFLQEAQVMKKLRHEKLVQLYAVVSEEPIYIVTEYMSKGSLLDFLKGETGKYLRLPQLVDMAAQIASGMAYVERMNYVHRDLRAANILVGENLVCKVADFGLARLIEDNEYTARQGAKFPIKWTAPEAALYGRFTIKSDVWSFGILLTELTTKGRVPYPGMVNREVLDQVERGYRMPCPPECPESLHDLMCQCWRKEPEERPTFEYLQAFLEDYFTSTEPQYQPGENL

IC50: 1850 nM
SMILES: CC1CN(c2ccc(Nc3ncc4ccc(=O)n(C5CCCCC5)c4n3)cc2)CC(C)N1CCO (stereo not shown) [Example 143, 8-Cyclohexyl-2-{4-[4-(2-hydroxy-ethyl)-3,5-dimethyl-piperazin-1-yl]-phenylamino}-8H-pyrido[2,3-d]pyrimidin-7-one]
